Source: patent publication US7279565B2, “Molecular regulatory circuits to achieve sustained activation of genes of interest by a single stress” (priority 1998, dated 2007)

What was measured:
Type in all cases: cell-based
[1] = target: T1, transcription factor GLP65 (Homo sapiens, UniProt P06401); assay: Molecular circuit Hsp70/GAL4-GLP65 + GAL4-fLuc in co-transfected HeLa cells, firefly luciferase assay; conditions: 10 nM mifepristone with or without heat treatment 43-44° C. for 30-60 min, assayed two or three days later, FIG. 6B
T1 construct: expressed in transfected cells; host or cells: human HeLa cells, transient co-transfection
T1 sequence (P06401 679-913 limits assumed): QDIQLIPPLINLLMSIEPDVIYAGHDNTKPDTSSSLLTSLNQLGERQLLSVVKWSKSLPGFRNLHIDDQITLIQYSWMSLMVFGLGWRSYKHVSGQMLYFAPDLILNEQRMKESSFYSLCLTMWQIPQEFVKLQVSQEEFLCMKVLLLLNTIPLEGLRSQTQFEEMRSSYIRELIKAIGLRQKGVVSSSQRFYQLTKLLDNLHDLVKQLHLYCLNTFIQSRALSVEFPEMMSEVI
Method: (§1) To test the molecular circuits outlined in FIG. 6A, human HeLa cells were co-transfected with appropriate amounts of Hsp70/GAL4-GLP65 and GAL4-fLuc or GAL4-hGH using Lipofectamine™ reagent (Life Technologies). For correction of differences in transfection efficiency, a small amount of pRL-CMV expressing a Renilla luciferase was also included in transfection mixtures. One day after transfection, cultures were either left untreated, were administered 10 nM mifepristone, were heat-treated (43-44° C. for 30-60 min), or were administered mifepristone and subjected to heat treatment. Two or three days later, cells were harvested and assayed for firefly luciferase activity using the Dual Luciferase Reporter Assay System (Promega Corp.) or for hGH activity using an ELISA kit distributed by Roche, respectively.

[2] = target: T1, transcription factor GLP65; assay: Molecular circuit Hsp70/GAL4-GLP65 + GAL4-hGH in co-transfected HeLa cells, hGH ELISA; conditions: 10 nM mifepristone with or without heat treatment 43-44° C. for 30-60 min, assayed two or three days later, FIG. 6C
Method: as §1

[3] = target: T2, transcription factor GLP65 (Homo sapiens, UniProt P06401+Q04206); assay: Stable HeLa-CAT line with genomic GAL4-fLuc and Hsp70/GAL4-GLP65-RKC transactivator, firefly luciferase assay; conditions: stable HeLa-CAT clonal line; mifepristone and/or heat treatment at 43° C.; assayed one day later; FIG. 7
T2 construct: expressed in transfected cells
Method: HeLa-CAT cells were cotransfected with GAL4-fLuc and Hsp70/GAL4-GLP65-RKC-neo (4:1 molar ratio), and transformants were selected using 400 μg/ml G418. Clonal lines were isolated. […] In the experiment shown in the Figure, parallel cultures of the cell line were either left untreated, or were heat-treated at 43° C. for the times indicated, exposed to mifepristone at the concentrations indicated, or both heat-treated and provided mifepristone. One day later, cells were harvested and assayed for firefly luciferase activity. […] Note that relative firefly luciferase activities are presented as fractions of the highest activity in the experiment.

EcR/RXR = assay: Firefly luciferase reporter assay of the Hsp70/E/GRE combination promoter in transfected EcR-293 cells; conditions: EcR-293 cells transfected with Hsp70/E/GRE-fLuc; ponasterone A for 1-2 days
Method: To test the Hsp70/E/GRE combination promoter and compare it with the hsp70B and E/GRE promoters, EcR-293 cells were co-transfected using Lipofectamine™ reagent (Life Technologies) with Hsp70/E/GRE-fLuc, Hsp70-fLuc or E/GRE-fLuc and pRL-CMV containing a constitutively expressed Renilla luciferase gene. One day after transfection, parallel cultures were either left untreated or were subjected to a heat treatment at 43-44° C. for 30 min or to ponasterone A (Invitrogen Corp.) for 1-2 days. Cells were harvested (after ponasterone exposure or 6-7 h after heat treatment), and firefly luciferase activities were determined using the Dual Luciferase Reporter System (Promega Corp.). […] EcR-293 cells expressing activatable EcR/RXR were obtained from Invitrogen Corporation and were cultured according to the manufacturer's instructions.

T2 sequence (P06401+Q04206 fused): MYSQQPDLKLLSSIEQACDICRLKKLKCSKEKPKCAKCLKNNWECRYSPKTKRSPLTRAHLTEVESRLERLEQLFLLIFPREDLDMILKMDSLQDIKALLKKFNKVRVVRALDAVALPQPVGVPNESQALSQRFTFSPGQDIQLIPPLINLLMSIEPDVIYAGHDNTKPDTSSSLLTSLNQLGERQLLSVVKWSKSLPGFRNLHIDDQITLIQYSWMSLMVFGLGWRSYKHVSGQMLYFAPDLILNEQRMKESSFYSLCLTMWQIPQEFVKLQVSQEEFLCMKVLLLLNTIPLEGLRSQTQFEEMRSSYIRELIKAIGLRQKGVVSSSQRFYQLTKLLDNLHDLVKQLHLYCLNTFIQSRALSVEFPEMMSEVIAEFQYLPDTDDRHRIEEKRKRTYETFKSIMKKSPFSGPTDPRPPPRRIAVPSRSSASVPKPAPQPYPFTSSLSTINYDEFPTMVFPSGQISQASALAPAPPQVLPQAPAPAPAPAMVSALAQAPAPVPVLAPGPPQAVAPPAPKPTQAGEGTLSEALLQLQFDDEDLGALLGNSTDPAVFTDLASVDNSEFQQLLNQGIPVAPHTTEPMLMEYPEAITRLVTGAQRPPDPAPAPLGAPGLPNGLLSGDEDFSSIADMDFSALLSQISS

| Structure (SMILES) | expression of fLuc gene (relative firefly luciferase activity) [1] | expression of hGH gene (relative hGH activity) [2] | firefly luciferase activity of genomic luciferase gene [3] | firefly luciferase activity (induction of the Hsp70/E/GRE combination promoter) (EcR/RXR) |
| --- | --- | --- | --- | --- |
| CC#C[C@]1(O)CC[C@H]2[C@@H]3CCC4=CC(=O)CCC4=C3[C@@H](c3ccc(N(C)C)cc3)C[C@@]21C [mifepristone] | essentially silent, except when the cells containing the respective gene switches were stressed (heat treatment) as well as were administered mifepristone | essentially silent, except when the cells containing the respective gene switches were stressed (heat treatment) as well as were administered mifepristone | Elevated levels of luciferase activity were only measured in cells that were both administered mifepristone and had been subjected to heat treatment |  |
| CC(C)CC[C@@H](O)[C@](C)(O)[C@H]1CC[C@@]2(O)C3=CC(=O)[C@@H]4C[C@@H](O)[C@@H](O)C[C@]4(C)[C@H]3CC[C@]12C [ponasterone A] |  |  |  | strongly inducible by heat and ponasterone A |
